Results from US20240366551A1, “MIXTURES AND COMPOSITIONS COMPRISING SULFORAPHANE AND GLYCINE” (SOCIETE DES PRODUITS NESTLE S.A., priority 2021, published 2024).

Tested on: Zebrafish larvae
Test: Zebrafish larvae survival assay under hydrogen peroxide oxidative stress
Assay type: in vivo, zebrafish (AB strain)
Settings: for larvae survived: compound 12 h before H2O2, survival after 24 h
Procedure: Zebrafish larvae provide a suitable vertebrate model for studying the oxidative stress […]. […] Survival assays were performed according to a protocol described previously^36 with some modifications. Briefly, wild-type zebrafish larvae
(AB strain, ZFIN ID: ZDB-GENO-960809-7) were used. At 3.5 days post fertilization (dpf), 24 larvae per condition were placed in a 60-mm petri dish with 5 ml of egg water (0.6 g/L Ocean sea salt, Tecniplast). Compounds of interest were directly added into the egg water for 12 h. Subsequently, compounds were removed at 4 days post fertilization (dpf4) and larvae were transferred to a 96-well plate in a volume of 200 μl fresh egg water containing 2.5 mM hydrogen peroxide (H2O2; Sigma Merck). Survival was monitored after 24 h of treatment.

Structure (SMILES) | larvae survived (vehicle+2.5 mM H2O2+500 μM L-glycine) | Predicted (LS) mean diff (survival, comparison 0 μM vs. treated group, 2.5 mM H2O2, 2 way ANOVA, Tukey's) | larvae survived (vehicle+2.5 mM H2O2+1 μM Sfn)
NCC(=O)O [L-glycine] | ~10% |  | 
C[S+]([O-])CCCCN=C=S (stereo not drawn) [Sfn, 4-methylsulfinylbutyl isothiocyanate] |  | −7.077 | ~10%
